The source made the active and inactive calls. The calls are words filed in the database; no cut-off is given here.
What was measured:
[1] = Cytotoxicity against human SH-SY5Y cells assessed as reduction in cell viability at 0.1 to 20 uM incubated for 1 hr by MTT assay; format: cell-based
[2] = system: SH-SY5Y; experiment: Effect on VGSC in human SH-SY5Y cells assessed as effect on total sodium current at 0.1 nM to 10 uM by whole cell patch clamp electrophysiology method; format: cell-based
[3] = system: SH-SY5Y; experiment: Inhibition of SOC in human SH-SY5Y cells assessed as reduction in thapsigargin-induced Ca2+ influx incubated for 5 mins by FURA-2AM dye based fluorescence assay; format: cell-based
[4] = system: SH-SY5Y; conditions: Homo sapiens, at 10 µM
Description: Inhibition of SOC in human SH-SY5Y cells assessed as reduction in thapsigargin-induced Ca2+ influx at 10 uM pre-incubated for 5 mins with 0.2 uM CsA followed by compound addition by FURA-2AM dye based fluorescence assay

[5] = system: SH-SY5Y; experiment: Inhibition of SOC in human SH-SY5Y cells assessed as reduction in thapsigargin-induced Ca2+ influx incubated for 5 mins at 5 uM by FURA-2AM dye based fluorescence assay; format: cell-based
[6] = system: SH-SY5Y; experiment: Inhibition of SOC in human SH-SY5Y cells assessed as reduction in thapsigargin-induced Ca2+ influx incubated for 5 mins at 10 uM in presence of 30 uM SKF96365 by FURA-2AM dye based fluorescence assay; format: cell-based
[7] = system: SH-SY5Y; experiment: Effect on cytosolic Ca2+ level in human SH-SY5Y cells at 10 uM followed by 1 mM Ca2+ addition 5 mins after compound treatment by FURA-2AM dye based fluorescence assay; format: functional, cell-based
[8] = Cytotoxicity against human SH-SY5Y cells assessed as reduction in cell viability at 25 uM incubated for 1 hr by MTT assay; format: cell-based
[9] = system: SH-SY5Y; experiment: Effect on cytosolic Ca2+ level in human SH-SY5Y cells at 10 uM by FURA-2AM dye based fluorescence assay; format: functional, cell-based
[10] = system: SH-SY5Y; experiment: Inhibition of SOC in human SH-SY5Y cells assessed as reduction in thapsigargin-induced Ca2+ influx incubated for 5 mins at 1 uM by FURA-2AM dye based fluorescence assay; format: cell-based
[11] = biological target: Sodium channel protein type 8 subunit alpha (Homo sapiens) (UniProt Q9UQD0); experiment: Effect on human NaV1.6 expressed in HEK293 cells assessed as effect on sodium current by whole cell patch clamp electrophysiology method; format: cell-based
[12] = system: SH-SY5Y; experiment: Induction of mitochondrial membrane potential loss in human SH-SY5Y cells at 10 uM incubated for 10 mins by TMRE dye based assay; format: functional
[13] = system: SH-SY5Y; conditions: Homo sapiens, at 10 µM; remark: listed apart in the source
Description: Modulation of mitochondrial permeability transition pore opening in human SH-SY5Y cells assessed as reduction in calcein fluorescence at 10 uM in presence of 0.2 uM CsA by calcein-AM dye based confocal laser scanning microscopy

[14] = system: SH-SY5Y; experiment: Modulation of mitochondrial permeability transition pore opening in human SH-SY5Y cells assessed as reduction in calcein fluorescence at 10 uM by calcein-AM dye based confocal laser scanning microscopy; format: functional
[15] = system: SH-SY5Y; conditions: Homo sapiens, at 10 µM; remark: listed apart in the source
Description: Induction of mitochondrial membrane potential loss in human SH-SY5Y cells at 10 uM incubated for 10 mins in presence of 0.2 uM CsA by TMRE dye based assay

[16] = system: SH-SY5Y; experiment: Inhibition of SOC in human SH-SY5Y cells assessed as reduction in thapsigargin-induced Ca2+ influx incubated for 5 mins at 10 uM in presence of 10 uM FCCP by FURA-2AM dye based fluorescence assay; format: cell-based
[17] = system: SH-SY5Y; conditions: Homo sapiens, at 10 µM; remark: listed apart in the source
Description: Inhibition of SOC in human SH-SY5Y cells assessed as reduction in thapsigargin-induced Ca2+ influx incubated for 5 mins at 10 uM by FURA-2AM dye based fluorescence assay

[18] = system: SH-SY5Y; experiment: Inhibition of SOC in human SH-SY5Y cells assessed as reduction in thapsigargin-induced Ca2+ influx incubated for 5 mins at 30 uM by FURA-2AM dye based fluorescence assay; format: cell-based

Sequence of Sodium channel protein type 8 subunit alpha (Homo sapiens) (Q9UQD0 whole entry, looked up): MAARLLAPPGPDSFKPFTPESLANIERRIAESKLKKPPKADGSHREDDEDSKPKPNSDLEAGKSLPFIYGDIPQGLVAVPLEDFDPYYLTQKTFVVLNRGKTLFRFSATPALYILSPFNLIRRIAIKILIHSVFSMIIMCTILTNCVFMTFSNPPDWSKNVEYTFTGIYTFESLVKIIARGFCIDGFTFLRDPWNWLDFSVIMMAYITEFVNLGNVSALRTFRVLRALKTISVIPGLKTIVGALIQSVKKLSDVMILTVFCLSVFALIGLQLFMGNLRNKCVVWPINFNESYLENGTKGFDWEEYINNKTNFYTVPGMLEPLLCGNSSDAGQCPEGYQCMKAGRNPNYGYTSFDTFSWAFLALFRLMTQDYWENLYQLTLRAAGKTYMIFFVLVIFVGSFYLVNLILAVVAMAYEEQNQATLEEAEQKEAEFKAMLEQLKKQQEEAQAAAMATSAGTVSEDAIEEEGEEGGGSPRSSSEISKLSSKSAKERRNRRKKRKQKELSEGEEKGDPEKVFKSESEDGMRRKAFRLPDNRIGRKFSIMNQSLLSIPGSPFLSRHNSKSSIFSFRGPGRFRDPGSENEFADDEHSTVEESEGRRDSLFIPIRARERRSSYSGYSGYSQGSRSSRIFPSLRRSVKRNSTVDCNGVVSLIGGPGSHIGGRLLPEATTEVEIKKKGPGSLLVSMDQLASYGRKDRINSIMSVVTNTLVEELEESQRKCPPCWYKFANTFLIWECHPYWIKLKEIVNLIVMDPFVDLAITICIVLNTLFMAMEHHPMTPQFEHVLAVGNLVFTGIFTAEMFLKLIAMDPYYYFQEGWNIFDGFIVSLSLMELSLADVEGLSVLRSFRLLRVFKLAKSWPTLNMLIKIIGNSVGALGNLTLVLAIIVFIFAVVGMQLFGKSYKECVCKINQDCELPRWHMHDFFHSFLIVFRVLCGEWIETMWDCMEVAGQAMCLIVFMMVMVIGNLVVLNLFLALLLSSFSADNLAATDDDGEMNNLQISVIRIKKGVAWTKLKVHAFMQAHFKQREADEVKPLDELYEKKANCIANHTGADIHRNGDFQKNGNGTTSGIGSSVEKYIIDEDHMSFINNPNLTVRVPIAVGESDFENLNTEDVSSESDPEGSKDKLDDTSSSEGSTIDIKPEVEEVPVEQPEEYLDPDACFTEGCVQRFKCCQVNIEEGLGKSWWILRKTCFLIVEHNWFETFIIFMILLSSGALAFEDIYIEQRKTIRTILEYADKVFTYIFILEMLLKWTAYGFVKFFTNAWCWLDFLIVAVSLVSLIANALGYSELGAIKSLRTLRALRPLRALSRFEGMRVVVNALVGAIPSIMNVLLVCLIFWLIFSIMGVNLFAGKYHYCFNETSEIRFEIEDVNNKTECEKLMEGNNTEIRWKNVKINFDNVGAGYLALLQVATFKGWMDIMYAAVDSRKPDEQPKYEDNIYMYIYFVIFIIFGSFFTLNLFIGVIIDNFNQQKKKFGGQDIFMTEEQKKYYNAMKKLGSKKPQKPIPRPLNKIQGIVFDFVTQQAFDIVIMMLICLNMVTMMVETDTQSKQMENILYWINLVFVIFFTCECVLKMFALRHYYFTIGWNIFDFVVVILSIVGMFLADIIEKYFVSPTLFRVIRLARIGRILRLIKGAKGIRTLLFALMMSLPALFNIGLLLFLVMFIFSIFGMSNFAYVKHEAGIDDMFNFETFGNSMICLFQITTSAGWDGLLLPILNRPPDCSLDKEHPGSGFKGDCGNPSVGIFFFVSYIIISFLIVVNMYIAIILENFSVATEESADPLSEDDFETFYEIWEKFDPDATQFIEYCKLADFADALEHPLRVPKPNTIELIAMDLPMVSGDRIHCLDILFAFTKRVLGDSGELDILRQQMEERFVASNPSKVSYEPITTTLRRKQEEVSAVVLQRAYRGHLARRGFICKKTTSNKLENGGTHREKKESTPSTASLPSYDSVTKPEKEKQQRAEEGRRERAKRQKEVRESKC

## CC(C)=CCNC(=N)NCCC[C@H]1NC(=O)[C@H](Cc2ccccc2)NC(=O)[C@H](CC(=O)O)NC(=O)[C@H](CC(C)C)NC(=O)CNC(=O)[C@H]2CCCN2C(=O)[C@H](Cc2ccccc2)NC1=O
[1]
  Activity: Non-toxic
[2]
  Activity: inactive
[3]
  inhibition: Dose-dependent effect
[4]
  inhibition: inactive
[5]
  inhibition: 33%
[6]
  inhibition: Active
[7]
  Activity: inactive
[8]
  Activity: 42%
[9]
  Activity: inactive
[10]
  inhibition: inactive
[11]
  Activity: inactive
[12]
  inhibition at 10 µM: 36%
[13]
  inhibition: inactive
[14]
  inhibition at 10 µM: 30%
[15]
  inhibition: inactive
[16]
  inhibition: 72%
[17]
  inhibition: Active

## N#CC(C#N)=NNc1ccc(OC(F)(F)F)cc1
[4]
  inhibition: Active
[12]
  inhibition at 10 µM: 68%
[13]
  inhibition: inactive
[14]
  inhibition at 10 µM: 20%
[15]
  inhibition: Active
[17]
  inhibition: 51%

## COc1ccc(CCCOC(Cn2ccnc2)c2ccc(OC)cc2)cc1 (centres undefined)
[18]
  inhibition: Active

From ChEMBL document CHEMBL3351226, “Autumnalamide, a prenylated cyclic peptide from the cyanobacterium Phormidium autumnale, acts on SH-SY5Y cells at the mitochondrial level” (J Nat Prod, 2014)
